Values after ≈ are worked out from the molar mass of the structure shown.
How the values were obtained:
Assay in all cases: Bacterial susceptibility testing, MIC by broth microdilution (CLSI)
Format in all cases: cell-based
[1] = system: E. coli ATCC25922; conditions: 35° C., 18-24 h; for MIC: Escherichia coli, ATCC25922, broth microdilution, read-out: MIC E. coli ATCC25922
Experimental: (§1) Minimal inhibitory concentrations (MIC) were determined by the broth microdilution method in accordance with the Clinical and Laboratory Standards Institute (CLSI) guidelines. In brief, organism suspensions were adjusted to a final inoculum between 3×10^5 and 7×10^5 colony-forming units (CFU)/mL. Drug dilutions and inocula were made in sterile, cation adjusted Mueller-Hinton Broth (Beckton Dickinson). In wells, an inoculum volume of 100 μL was mixed to 2 μL of DMSO with 2-fold serial dilutions of drug. All inoculated microdilution trays were incubated in ambient air at 35° C. for 18-24 h. Following incubation, the lowest concentration of the drug that prevented visible growth (OD600 nm<0.05) was recorded as the MIC. Performance of the assay was monitored by the use of laboratory quality-control strains and compounds with defined MIC spectrum, in accordance with CLSI guidelines.

[2] = system: K. pneumoniae ATCC13883; conditions: 35° C., 18-24 h; for MIC: Klebsiella pneumoniae, ATCC13883, broth microdilution, read-out: MIC K. pneumoniae ATCC13883
Experimental: as §1

[3] = system: P. aeruginosa 209 PAO1; conditions: Pseudomonas aeruginosa, PAO1, broth microdilution, 35° C., 18-24 h; read-out: MIC P. aeruginosa 209 PAO1
Experimental: as §1

[4] = system: P. aeruginosa ATCC27835; conditions: Pseudomonas aeruginosa, ATCC27835, broth microdilution, 35° C., 18-24 h; read-out: MIC P. aeruginosa ATCC27835
Experimental: as §1

MIC [3] [mg/L]	MIC [4] [mg/L]	MIC [1] [mg/L]	MIC [2] [mg/L]	SMILES	MIC E. coli ATCC25922 ([1]; broth microdilution) [mg/L]	MIC K. pneumoniae ATCC13883 ([2]; broth microdilution) [mg/L]
4 (≈ 9.44 µM)	2 (≈ 4.72 µM)	16 (≈ 37.8 µM)	64 (≈ 151 µM)	C[C@H](O)c1nccn1[C@@H](/C=C/c1ccc(-c2ccc(OCC(O)CN)cc2)cc1)CO (mixture of isomers) [Compound 22, (2S,E)-4-(4′-(3-amino-2-hydroxypropoxy)-[1,1′-biphenyl]-4-yl)-2-(2-((S)-1-hydroxyethyl)-1H-imidazol-1-yl)but-3-en-1-ol]	–	–
2 (≈ 4.72 µM)	2 (≈ 4.72 µM)	–	–	C[C@H](O)c1nccn1[C@@H](/C=C/c1ccc(-c2ccc(OC[C@H](N)CO)cc2)cc1)CO (single isomer, unassigned) [Compound 9]	–	–
1 (≈ 2.36 µM)	2 (≈ 4.72 µM)	8 (≈ 18.9 µM)	16 (≈ 37.8 µM)	C[C@H](O)c1nccn1[C@@H](/C=C/c1ccc(-c2ccc(OC[C@@H](N)CO)cc2)cc1)CO (single isomer, unassigned) [Compound 10]	–	–
0.5 (≈ 1.23 µM)	2 (≈ 4.93 µM)	0.5 (≈ 1.23 µM)	–	C[C@H](O)c1nccn1[C@@H](/C=C/c1ccc(-c2ccc(O[C@@H]3C[C@H]3N)cc2)cc1)CO (single isomer, unassigned) [Compound 15]	–	–
4 (≈ 8.41 µM)	4 (≈ 8.41 µM)	2 (≈ 4.2 µM)	4 (≈ 8.41 µM)	C[C@H](O)c1nccn1C/C=C/c1ccc(-c2ccc(OCCN3CCN(CCN)CC3)cc2)cc1 [Compound 5, (S,E)-1-(1-(3-(4′-(2-(4-(2-aminoethyl)piperazin-1-yl)ethoxy)-[1,1′-biphenyl]-4-yl)allyl)-1H-imidazol-2-yl)ethan-1-ol]	–	–
4 (≈ 9.25 µM)	4 (≈ 9.25 µM)	4 (≈ 9.25 µM)	16 (≈ 37 µM)	C[C@H](O)c1nccn1C/C=C/c1ccc(-c2ccc(OCCN3CC(CN)C3)cc2)cc1 [Compound 6, (S,E)-1-(1-(3-(4′-(2-(3-(aminomethyl)azetidin-1-yl)ethoxy)-[1,1′-biphenyl]-4-yl)allyl)-1H-imidazol-2-yl)ethan-1-ol]	–	–
2 (≈ 5.13 µM)	4 (≈ 10.3 µM)	0.25 (≈ 0.642 µM)	0.25 (≈ 0.642 µM)	C[C@H](O)c1nccn1C/C=C/c1ccc(-c2ccc(OCC3(N)CC3)cc2)cc1 [Compound 7, (S,E)-1-(1-(3-(4′-((1-aminocyclopropyl)methoxy)-[1,1′-biphenyl]-4-yl)allyl)-1H-imidazol-2-yl)ethan-1-ol]	–	–
4 (≈ 9.42 µM)	4 (≈ 9.42 µM)	8 (≈ 18.8 µM)	16 (≈ 37.7 µM)	C[C@H](O)c1nccn1[C@@H](/C=C/c1ccc(-c2ccc(OC[C@H](O)CO)cc2)cc1)CO [Compound 23, (R)-3-((4′-((S,E)-4-hydroxy-3-(2-((S)-1-hydroxyethyl)-1H-imidazol-1-yl)but-1-en-1-yl)-[1,1′-biphenyl]-4-yl)oxy)propane-1,2-diol]	–	–

Further lines, the molecule ahead of its results:

SMILES	MIC [3] [mg/L]	MIC [4] [mg/L]	MIC [1] [mg/L]	MIC [2] [mg/L]	MIC E. coli ATCC25922 ([1]; broth microdilution) [mg/L]	MIC K. pneumoniae ATCC13883 ([2]; broth microdilution) [mg/L]
C[C@H](O)c1nccn1[C@@H](/C=C/c1ccc(-c2ccc(OCC(N)CO)cc2)cc1)CO (mixture of isomers) [Compound 8, (2S,E)-4-(4′-(2-amino-3-hydroxypropoxy)-[1,1′-biphenyl]-4-yl)-2-(2-((S)-1-hydroxyethyl)-1H-imidazol-1-yl)but-3-en-1-ol]	4 (≈ 9.44 µM)	4 (≈ 9.44 µM)	–	–	16 (≈ 37.8 µM)	64 (≈ 151 µM)
C[C@H](O)c1nccn1[C@@H](/C=C/c1ccc(-c2ccc(O[C@H]3C[C@@H]3N)cc2)cc1)CO (racemic) [Compound 13, (S,E)-4-(4′-((trans)-2-aminocyclopropoxy)-[1,1′-biphenyl]-4-yl)-2-(2-((S)-1-hydroxyethyl)-1H-imidazol-1-yl)but-3-en-1-ol]	2 (≈ 4.93 µM)	16 (≈ 39.5 µM)	4 (≈ 9.86 µM)	4 (≈ 9.86 µM)	–	–
C[C@H](O)c1nccn1[C@@H](/C=C/c1ccc(-c2ccc(CO[C@H]3C[C@H]3N)cc2)cc1)CO (racemic) [Compound 16, (S,E)-4-(4′-(((cis)-2-aminocyclopropoxy)methyl)-[1,1′-biphenyl]-4-yl)-2-(2-((S)-1-hydroxyethyl)-1H-imidazol-1-yl)but-3-en-1-ol]	2 (≈ 4.77 µM)	4 (≈ 9.53 µM)	2 (≈ 4.77 µM)	8 (≈ 19.1 µM)	–	–
C[C@H](O)c1nccn1[C@@H](/C=C/c1ccc(-c2ccc(OCC(O)CN(C)C)cc2)cc1)CO (mixture of isomers) [Compound 21, (2S,E)-4-(4′-(3-(dimethylamino)-2-hydroxypropoxy)-[1,1′-biphenyl]-4-yl)-2-(2-((S)-1-hydroxyethyl)-1H-imidazol-1-yl)but-3-en-1-ol]	8 (≈ 17.7 µM)	4 (≈ 8.86 µM)	16 (≈ 35.4 µM)	64 (≈ 142 µM)	–	–
C[C@H](O)c1nccn1[C@@H](/C=C/c1ccc(-c2ccc(OCCC(O)CO)cc2)cc1)CO (mixture of isomers) [Compound 43, 4-((4′-((S,E)-4-hydroxy-3-(2-((S)-1-hydroxyethyl)-1H-imidazol-1-yl)but-1-en-1-yl)-[1,1′-biphenyl]-4-yl)oxy)butane-1,2-diol]	2 (≈ 4.56 µM)	2 (≈ 4.56 µM)	–	2 (≈ 4.56 µM)	–	–
C[C@H](O)c1nccn1[C@@H](/C=C/c1ccc(-c2ccc(OC3CN(CCO)C3)cc2)cc1)CO [Compound 20, (S,E)-2-(2-((S)-1-hydroxyethyl)-1H-imidazol-1-yl)-4-(4′-((1-(2-hydroxyethyl)azetidin-3-yl)oxy)-[1,1′-biphenyl]-4-yl)but-3-en-1-ol]	2 (≈ 4.45 µM)	2 (≈ 4.45 µM)	4 (≈ 8.9 µM)	–	–	–
COC[C@H](N)COc1ccc(-c2ccc(/C=C/[C@@H](CO)n3ccnc3[C@H](C)O)cc2)cc1 [Compound 31, (2S,E)-4-(4′-(2-amino-3-methoxypropoxy)-[1,1′-biphenyl]-4-yl)-2-(2-((S)-1-hydroxyethyl)-1H-imidazol-1-yl)but-3-en-1-ol]	1 (≈ 2.29 µM)	4 (≈ 9.14 µM)	2 (≈ 4.57 µM)	4 (≈ 9.14 µM)	–	–
C[C@H](O)c1nccn1[C@@H](/C=C/c1ccc(-c2ccc(C3CC(NCc4cocn4)C3)cc2)cc1)CO (stereo partly drawn) [Compound 40, (S,E)-2-(2-((S)-1-hydroxyethyl)-1H-imidazol-1-yl)-4-(4′-(3-((oxazol-4-ylmethyl)amino)cyclobutyl)-[1,1′-biphenyl]-4-yl)but-3-en-1-ol]	2 (≈ 4.13 µM)	2 (≈ 4.13 µM)	–	1 (≈ 2.06 µM)	–	–
C[C@H](O)c1nccn1[C@@H](/C=C/c1ccc(-c2ccc(C3CC(NC(C#N)CO)C3)cc2)cc1)CO (stereo partly drawn) [Compound 41, 3-hydroxy-2-((3-(4′-((S,E)-4-hydroxy-3-(2-((S)-1-hydroxyethyl)-1H-imidazol-1-yl)but-1-en-1-yl)-[1,1′-biphenyl]-4-yl)cyclobutyl)amino)propanenitrile]	2 (≈ 4.23 µM)	2 (≈ 4.23 µM)	–	2 (≈ 4.23 µM)	–	–
C[C@H](O)c1nccn1[C@@H](/C=C/c1ccc(-c2ccc(C3CC(NCc4ncon4)C3)cc2)cc1)CO (stereo partly drawn) [Compound 42, (S,E)-4-(4′-(3-(((1,2,4-oxadiazol-3-yl)methyl)amino)cyclobutyl)-[1,1′-biphenyl]-4-yl)-2-(2-((S)-1-hydroxyethyl)-1H-imidazol-1-yl)but-3-en-1-ol]	4 (≈ 8.24 µM)	4 (≈ 8.24 µM)	–	0.5 (≈ 1.03 µM)	–	–
C[C@H](O)c1nccn1[C@@H](/C=C/c1ccc(-c2ccc(C3CC(NCC(=O)O)C3)cc2)cc1)CO (stereo partly drawn) [Compound 44, (3-(4′-((S,E)-4-hydroxy-3-(2-((S)-1-hydroxyethyl)-1H-imidazol-1-yl)but-1-en-1-yl)-[1,1′-biphenyl]-4-yl)cyclobutyl)glycine]	4 (≈ 8.67 µM)	4 (≈ 8.67 µM)	4 (≈ 8.67 µM)	8 (≈ 17.3 µM)	–	–
C[C@H](O)c1nccn1[C@@H](/C=C/c1ccc(-c2ccc(C3CC(NCC(F)(F)CO)C3)cc2)cc1)CO (stereo partly drawn) [Compound 45, (S,E)-4-(4′-(3-((2,2-difluoro-3-hydroxypropyl)amino)cyclobutyl)-[1,1′-biphenyl]-4-yl)-2-(2-((S)-1-hydroxyethyl)-1H-imidazol-1-yl)but-3-en-1-ol]	4 (≈ 8.04 µM)	4 (≈ 8.04 µM)	0.25 (≈ 0.502 µM)	0.5 (≈ 1 µM)	–	–
C[C@H](O)c1nccn1[C@@H](/C=C/c1ccc(-c2ccc(C3CC(NC[C@@H]4CNC(=O)O4)C3)cc2)cc1)CO (stereo partly drawn) [Compound 46, (R)-5-(((3-(4′-((S,E)-4-hydroxy-3-(2-((S)-1-hydroxyethyl)-1H-imidazol-1-yl)but-1-en-1-yl)-[1,1′-biphenyl]-4-yl)cyclobutyl)amino)methyl) oxazolidin-2-one]	4 (≈ 7.96 µM)	4 (≈ 7.96 µM)	0.5 (≈ 0.995 µM)	2 (≈ 3.98 µM)	–	–
C[C@H](O)c1nccn1[C@@H](/C=C/c1ccc(-c2ccc(C3CC(NCc4noc(C(N)=O)n4)C3)cc2)cc1)CO (stereo partly drawn) [Compound 47, 3-(((3-(4′-((S,E)-4-hydroxy-3-(2-((S)-1-hydroxyethyl)-1H-imidazol-1-yl)but-1-en-1-yl)-[1,1′-biphenyl]-4-yl)cyclobutyl)amino)methyl)-1,2,4-oxadiazole-5-carboxamide]	4 (≈ 7.57 µM)	4 (≈ 7.57 µM)	0.5 (≈ 0.946 µM)	1 (≈ 1.89 µM)	–	–
C[C@H](O)c1nccn1[C@@H](/C=C/c1ccc(-c2ccc(C3CC(N)C3)cc2)cc1)CO (stereo partly drawn) [Compound 48, (S,E)-4-(4′-(3-aminocyclobutyl)-[1,1′-biphenyl]-4-yl)-2-(2-((S)-1-hydroxyethyl)-1H-imidazol-1-yl)but-3-en-1-ol]	2 (≈ 4.96 µM)	2 (≈ 4.96 µM)	2 (≈ 4.96 µM)	16 (≈ 39.7 µM)	–	–

From patent publication US20240150298A1, “ANTIBACTERIAL COMPOUNDS” (Blacksmith Medicines, Inc., priority 2021, published 2024)
